According to patent US9399072B2, “Methods of treatment of pancreatic cancer” (Abraxis BioScience, LLC, priority 2010, dated 2016):

Assays:
[1] = Phase I study of Nab-paclitaxel with vandetanib: MTD, DLT, adverse events; format: in vivo, human
Excerpt: Patients were randomized to one of two cohorts. […] A 3+3 design was used.

pancreatic cancer = details: in vivo; cited from earlier work
[2] = tested on: locally advanced pancreatic cancer; details: 126 patients with locally advanced pancreatic cancer; cited from earlier work
[3] = tested on: gemcitabine-resistant pancreatic cancer; details: second-line, small studies; cited from earlier work

COc1cc2c(Nc3ccc(Br)cc3F)ncnc2cc1OCC1CCN(C)CC1 [vandetanib]
MTD ([1]; cohort A: daily, combined with 100 mg/m^2 Nab-paclitaxel weekly for three out of four weeks): 300 mg
MTD ([1]; cohort B: daily, in combination with 260 mg/m^2 Nab-paclitaxel every three weeks): 300 mg

Nc1ccn([C@@H]2O[C@H](CO)[C@@H](O)C2(F)F)c(=O)n1 [gemcitabine]
median overall survival (pancreatic cancer): 6.0 months
median progression free survival (pancreatic cancer): 3.5 months
median overall survival [2]: 5.7 months
median time to disease progression [2]: 2.1 months

CC(=O)O[C@H]1C(=O)[C@@]2(C)[C@H]([C@H](OC(=O)c3ccccc3)[C@]3(O)C[C@H](OC(=O)[C@H](O)[C@@H](NC(=O)c4ccccc4)c4ccccc4)C(C)=C1C3(C)C)[C@]1(OC(C)=O)CO[C@@H]1C[C@@H]2O [paclitaxel]
median overall survival [3]: 17.5 weeks
response rate [3]: 6%

O=c1[nH]cc(F)c(=O)[nH]1 [5-FU, 5-fluororuracil]
median overall survival [2]: 4.2 months
median time to disease progression [2]: 0.9 months
